Results published in US5441563A, “Highly insoluble azole embossing inhibitor and the use thereof” (Armstrong World Industries, Inc., priority 1994, dated 1995).
Values after ≈ are worked out from the molar mass of the structure shown.

Columns and labels:
[1] = Inhibitor activity (IA), depth of chemical embossing and degree of expansion ranked against BTA-P (Table II); design: key to Inhibitor Activity (IA): 1: Excellent; 2: Very Good; 3: Good; 4: Fair; 5: Poor; None; conditions: 10% by weight inhibitor in ink; scale 1 to 5, BTA-P benchmark = 1; 7 mil plastisol, 185 °C, 1.9 min
Method: Table II sets forth a number of properties of the examples and comparative examples which were made and tested. Most of these compounds were prepared using the direct milling procedure and then evaluated for inhibitor activity, ghosting and embossing definition.
The inhibited inks (at 10% by weight inhibitor concentration) were printed on 7 mils of an expandable plastisol coated onto a glass mat which was saturated with a non-expandable plastisol. This was done on a flat-bed gravure proof press using a 100 line screen step-wedge gravure plate. The steps ranged from a deep shadow tone to a shallow highlight tone. The inks printed and dried without any tack.
The printed samples were coated with 10 mils of a clear plastisol wearlayer and heated for 1.9±0.1 minutes at an air temperature of 185°±2° C. in a Werner. Mathis oven to fuse and expand the foamable plastisol to about 14 mils (a 2:1 blow ratio). The thickness of the printed coated areas (i.e., restricted area) was measured in mils and compared to the thickness of the expanded unprinted surrounding areas. This difference was recorded as depth of chemical embossing and was used along with the degree of expansion in the inhibited area to access the inhibitor activity (IA).
The inhibitor activity of the BTA-P derivative was established as the benchmark and on a scale of 1 to 5 was given a rating of 1 (five on the scale being less than one mil of overall chemical embossing). This is a subjective ranking where the other compounds were evaluated for inhibitor activity by comparing them to BTA-P, both numerically and visually.

[2] = Stability of dispersions and ink compositions containing the inhibitor; type: physicochemical
Method: A cationic dispersion of TTA-P was prepared using a quaternary ammonium salt, stearyl dimethylbenzylammonium chloride, (Maquat SC-18, Mason Chemical Co.), as the stabilizer. The product was first diminutized by grinding the coarse powder (TTA-P) for approximately 18 hours in a standard ball mill using a combination of 12 mm diameter spherical and 6 mm diameter×6 mm high cylindrical balls. Approximately 1/2 of the 1 L ball mill volume was filled for the grinding operation. […] The dispersion was then prepared by adding 2.35 parts Maquat SC-18 (85% active) to 37.65 parts deionized water and stirring until dissolved. A total of 40 parts of TTA-P was then added to the surfactant solution in 5 part increments with stirring, followed by agitation with a sonic dismembrator, (Fisher Model 3000). The sonic probe was inserted directly into the suspension and run on the highest setting for 1-2 minutes. A creamy dispersion resulted initially, with viscosity increasing with increasing solids content. The final suspension was a uniform paste with a concentration of 50% by weight solids.
A blue aqueous inhibitor ink was prepared by adding 0.20 parts of CIB 103 Blue Pigment (sold by Penn Color, Inc.) to 20 parts of CIE 94 Extender (sold by Penn Color, Inc.) and stirring to uniform coloration. Then 6.06 parts of the 50% suspension of TTA-P (prepared in Example 4) was then added to the ink mixture and stirred to uniform coloration.
An anionic dispersion paste of TTA-P was prepared with a polyoxyethylene branched nonylphenyl ether phosphate surfactant, (Rhodofac PE-50, Rhone Poulenc). Diminutization of the compound was performed by milling as described in Example 4. Dispersion of the compound was accomplished using the sonic dismembrator, also described in Example 4. Materials were combined in the proportion: 40 parts of deionized water, 2.06 parts of the surfactant and 40 parts of TTA-P. Materials were added in the listed sequence.
The anionic dispersion of TTA-P (Example 6) was added to an anionic ink formulation of Sicpa Corp. The resultant mixture consisted of 20 parts Sicpa Extender 694556, 0.20 parts Sicpa black ink 674554 and 6.06 parts of the 48.7% dispersion of the compound (Example 6).
A portion of BTA-P, the benzotriazole-piperazine derivative, was stably dispersed with the cationic surfactant stearyldimethylbenzylammonium chloride, (Maquat SC-18, Mason Chemical Co.). The compound was milled and dispersed as in Example 4. The materials were combined in the proportion: 20 parts deionized water, 1.18 parts Maquat SC-18, (85% active), and 33.16 parts BTA-P. The materials were added in the listed sequence. […] The paste was 61% by weight of BTA-P.
The cationic dispersion of BTA-P (Example 8) was added to a cationic ink formulation of Penn Color. The mixture consisted of 20 parts Penn Color Extender CIE 94, 0.20 parts Penn Color CIB 103 blue ink and 4.96 parts of the 61% dispersion of BTA-P (Example 8).
A portion of HTTA-P, the hydrogenated tolyltriazolepiperazine derivative, was colloidally dispersed with the cationic surfactant stearyldimethylbenzylammonium chloride, (Maquat SC-18, Mason Chemical Co.). The milling and dispersing procedures of Example 4 were followed. The materials were combined in the proportion: 21 parts deionized water, 1 part Maquat SC-18, (85% active), and 37 parts HTTA-P. The materials were added in the listed sequence. […] The paste was 62.7% by weight of HTTA-P.
The cationic dispersion of HTTA-P (Example 10) was added to a cationic ink formulation of Penn Color. The mixture consisted of 20 parts Extender CIE 94, 0.20 parts CIB 103 blue ink and 4.83 parts of the 62.7% dispersion of HTTA-P (Example 10).
Hitherto, dispersion of these new inhibitors directly into the ink formulation was not considered. The instability problems of other triazole inhibitors seemed to indicate that a surfactant in addition to that found in the ink and extender was required. […]

physchem = type: physicochemical; conditions: for Solubility in iPrOH: 1440 min
[3] = Stability of dispersions and ink compositions containing the inhibitor; type: physicochemical; conditions: for Stability of ink mixture: sonicated
[4] = cationic aqueous ink with cationic dispersion
[5] = cationic dispersion paste, Maquat SC-18

Row | Molecule | Inhibitor Activity (IA) [1] | Stability of ink mixture [2, 4] | Stability of dispersion [2, 5] | Solubility in iPrOH (physchem) [% BY WT] | solubility at 24 h (physchem; water) [µg/mL] | Stability of dispersion ([3]; direct milling in cationic ink extender CIE 94, about 18 hours) | Solubility in H2O (physchem; water, 24 h) [% BY WT] | Stability of ink mixture ([2]; anionic aqueous ink with anionic dispersion) | Stability of dispersion ([2]; anionic dispersion paste, Rhodofac PE-50) | Stability of ink mixture ([3]; direct addition to anionic ink) | Stability of ink mixture ([3]; direct addition to cationic ink)
1 | N,N'-Bis(Methylcyclohexyltriazol-1-yl Methyl) Piperazine [HTTA-P] | 1 | colloidally stable | stable homogenous paste | – | – | – | – | – | – | – | –
2 | c1ccc2c(c1)nnn2CN1CCN(Cn2nnc3ccccc32)CC1 [BTA-P, N,N'-bis(benzotriazol-1-ylmethyl) piperazine] | 1 | colloidally stable | stable homogenous paste | 0.007 | 10 (≈ 28.7 µM) | homogeneous stable dispersion | – | – | – | – | –
3 | N,N'-bis(tolyltriazol-1-yl methyl) piperazine [TTA-P] | 1 | colloidally stable and disperse | – | 0.204 | – | – | 0.031 | colloidally stable | stable, homogenous paste | homogenous and stable mixture | homogenous and stable mixture
